Seven molecules from ChEMBL document CHEMBL1201862, “PubChem BioAssay data set” (2004) can be followed below.

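These data come from cells grown in 96-well plates and exposed to compound for 48 hours at five concentrations. GI50 = concentration required for 50% inhibition of growth.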 Calls of active or inactive are those of the source. Rule as the data show it: active = GI50 up to about 1.1 µM and inactive = higher.

Experiment in all cases: DTP human tumour cell line panel, 48 h
In assay [1] the test system is MCF7.
Assay [2] relates to UO-31.
In assay [3] the test system is SK-OV-3.
Assay [4] has as its system SK-MEL-28.
Assay [5] has as its system MDA-N.
Assay [6] concerns NCI/ADR-RES.
Assay [7] relates to CAKI-1.
In assay [8] the test system is HCC 2998.
For assay [9], the system named is HOP-92.
For assay [10], the system named is SW-620.
For assay [11], the system named is MDA-MB-231.
The test system of assay [12] is KM12.
For assay [13], the system named is RXF 393.
Assay [14] relates to ACHN.
Assay [15] relates to SN12C.
Assay [16] relates to SF-539.
Assay [17] concerns PC-3.
In assay [18] the test system is TK-10.
In assay [19] the test system is OVCAR-5.
Assay [20] relates to NCI-H522.

As a reminder, the GI50 is the concentration at which growth is held to half of that of the control. As to `COc1cc([C@@H]2c3[nH]c4ccccc4c3C(Nc3ccc([N+](=O)[O-])cc3)[C@H]3COC(=O)N23)cc(OC)c1O` (stereo not given in full), the 50% growth inhibitory concentration (GI50) in assay [1] is 0.0361 µM (active); in [2], 1.27 µM (inactive); in [3] it was 0.269 µM (active); in [4] it was 0.291 µM (active); in assay [5], 0.875 µM (active); in assay [6], > 86.3 µM (inactive). The 50% growth inhibitory concentration (GI50) is 0.247 µM (active) in [7]; 0.392 µM (active) in assay [8]; 0.229 µM (active) in [9]; 0.248 µM (active) in assay [10]; 0.352 µM (active) in assay [11]; 0.326 µM (active) in [12]. The GI50 in assay [13] was 0.382 µM (active); in assay [14], 0.118 µM (active); in assay [15] it was 0.187 µM (active); in assay [16], 0.124 µM (active); in assay [17], 0.698 µM (active); in [18], 0.446 µM (active). Also, the 50% growth inhibitory concentration (GI50) was 0.369 µM (active) in assay [19] and 0.407 µM (active) in assay [20].
Turning to `CC(=O)O/C(=C1\C[C@H]2[C@@H]3CC=C4C[C@@H](OC(C)=O)CC[C@]4(C)[C@H]3CC[C@]2(C)C1=O)C(F)(F)F`, the GI50 in assay [1] was 5.86 µM (inactive); in assay [2], 12.1 µM (inactive); in [3], 20.1 µM (inactive); in assay [4], 14.9 µM (inactive); in assay [5], 7.64 µM (inactive); in [6], 7.16 µM (inactive). For the same molecule, the GI50 is 9.71 µM (inactive) in assay [7]; 6.31 µM (inactive) in assay [8]; 8.24 µM (inactive) in assay [9]; 5.61 µM (inactive) in assay [10]; 10.4 µM (inactive) in [11]; 12.7 µM (inactive) in [12]. The GI50 is 6.19 µM (inactive) in assay [13]; 16.2 µM (inactive) in [14]; 8.97 µM (inactive) in [15]; 7.24 µM (inactive) in assay [16]; 13.5 µM (inactive) in assay [17]; 12.2 µM (inactive) in [18]. In addition, the GI50 in assay [19] was 29.4 µM (inactive); in [20], 3.18 µM (inactive).
Take `CC(C)N1CCCOC(c2ccc([N+](=O)[O-])cc2)O1` (stereo not given): the GI50 in [1] was 80.9 µM (inactive); in assay [2], > 100 µM (inactive); in [3] it was > 100 µM (inactive); in assay [4] it was > 100 µM (inactive); in [5], > 100 µM (inactive); in assay [6], > 100 µM (inactive). Moreover, the GI50 in assay [7], in [8], in assay [9], in [10], in assay [11] and in [12] was > 100 µM (inactive) throughout. For the same molecule, the GI50 in [13], in assay [14], in assay [15], in assay [16], in [17] and in assay [18] was > 100 µM (inactive) throughout. Moreover, the GI50 in assay [19] and in assay [20] was > 100 µM (inactive) throughout.
With `NCC1CCN(c2nc3ccccc3c3c2CCCC3)CC1`, the GI50 in [1] was 4.86 µM (inactive); in assay [2] it was 5.6 µM (inactive); in assay [3] it was 14.7 µM (inactive); in assay [4], 5.15 µM (inactive); in assay [5] it was 2.71 µM (inactive); in assay [6], 12.9 µM (inactive). Further, the GI50 in assay [7] was 8.61 µM (inactive); in assay [8], 1.9 µM (inactive); in assay [9] it was 9.04 µM (inactive); in assay [10] it was 2.86 µM (inactive); in assay [11], 5.57 µM (inactive); in assay [12], 4.28 µM (inactive). The GI50 was 2.75 µM (inactive) in assay [13]; 12.6 µM (inactive) in assay [14]; 9.55 µM (inactive) in [15]; 4.65 µM (inactive) in assay [16]; 8.93 µM (inactive) in assay [17]; 12.9 µM (inactive) in assay [18]. The GI50 was 11.9 µM (inactive) in [19] and 6.22 µM (inactive) in [20].
Consider `CC(C)C1CC(CO)(CNc2cc(Cl)nc(N)n2)C1` (stereo not given), for which the GI50 in assay [1] is 15 µM (inactive); in assay [2], 54 µM (inactive); in assay [3], > 100 µM (inactive); in assay [4], > 100 µM (inactive); in [5], 57.7 µM (inactive); in assay [6], 16.8 µM (inactive). For the same molecule, the GI50 was > 100 µM (inactive) in assay [7]; 34.8 µM (inactive) in [8]; 45 µM (inactive) in assay [9]; > 100 µM (inactive) in [10]; 94 µM (inactive) in assay [11]; > 100 µM (inactive) in assay [12]. The GI50 in assay [13] is 19.7 µM (inactive); in [14], > 100 µM (inactive); in [15], > 100 µM (inactive); in assay [16] it was 73.8 µM (inactive); in assay [17], 71 µM (inactive); in [18], > 100 µM (inactive). Besides, the GI50 is 81.8 µM (inactive) in [19] and 39 µM (inactive) in [20].
On to `O=C(O)c1ccc2c(O)c(O)ccc2c1`, for which the GI50 in assay [1] is 7.23 µM (inactive); in [2] it was 19.5 µM (inactive); in [3], > 43.1 µM (inactive); in assay [4], > 100 µM (inactive); in [5], 18.5 µM (inactive); in assay [6], 19.5 µM (inactive). Besides, the GI50 in assay [7] is 21.6 µM (inactive); in assay [8] it was 33.3 µM (inactive); in assay [9], 32.8 µM (inactive); in assay [10], 26.5 µM (inactive); in assay [11], 29 µM (inactive); in [12] it was 16.4 µM (inactive). Also, the GI50 in assay [13] was 20.9 µM (inactive); in assay [14] it was 15.8 µM (inactive); in [15] it was 8.61 µM (inactive); in assay [16] it was 4.81 µM (inactive); in assay [17], 33.7 µM (inactive); in assay [18] it was 13.8 µM (inactive). Further, the GI50 in assay [19] is 26.3 µM (inactive); in assay [20], 16.9 µM (inactive).
For the molecule `CC(=O)c1cccc(NC(=O)C(=O)c2c(O)oc3ccccc3c2=O)c1`, the GI50 in [1], in assay [2], in assay [3], in [4], in [5] and in assay [6] was > 100 µM (inactive) in each case. For the same molecule, the GI50 in [7], in assay [8], in assay [9], in [10], in [11] and in assay [12] was > 100 µM (inactive) throughout. For the same molecule, the GI50 in [13], in assay [14], in [15], in [16], in [17] and in assay [18] was > 100 µM (inactive) each time. The GI50 in assay [19] and in assay [20] was > 100 µM (inactive) throughout.
